Data: publication PMC10253456, “Investigating the Contribution of Major Drug-Metabolising Enzymes to Possum-Specific Fertility Control” (International Journal of Molecular Sciences, 2023)
Like-named read-outs stand apart in the source and are kept apart here.

Key:
UGT2B [1] = conditions: avian; compound at estimated 2-fold IC50
UGT2B (heading: UGT2B4) [2] = experiment: p-nitrophenol glucuronidation activity in pooled human liver microsomes; conditions: human, pooled human liver microsomes (50 donors), pH 7.4, probe p-nitrophenol (0.5 mM final, from 50 µL of 5 mM in 500 µL)
UGT2B [3] = experiment: as above
CYP3A [4] = experiment: CYP3A catalytic activity (erythromycin N-demethylation) in mouse liver microsomes; conditions: for Percent control catalytic activity at estimated IC50 / Percent control catalytic activity at estimated 2-fold IC50: mouse liver microsomes, initial screen n=1; for Percent control catalytic activity at estimated IC50: compounds without reported IC50 at 1 µM; for Percent control catalytic activity at estimated 2-fold IC50: compounds without reported IC50 at 5 µM; for % of control (catalytic activity at 2-fold IC50) / Catalytic activity at 2-fold IC50: mouse, compound at estimated 2-fold IC50 (5 µM where none reported)
Method: (§1) Possums were collected from the Otago Peninsula (Dunedin) and the Okuti Valley, Banks Peninsula (Christchurch) in New Zealand in collaboration with the Otago Peninsula Biodiversity Group and Manaaki Whenua-Landcare Research, respectively. […] Possums were caged and humanely killed by a blow to the head, and the livers were harvested, snap-frozen in liquid nitrogen, and stored in a freezer at −80 °C until the preparation of microsomal fractions. […] Mice were euthanised by carbon dioxide inhalation and the livers were removed and microsomes prepared. […] The livers from avian species (mallards and a swan) were kindly donated by a local bird hunting group based in Dunedin, New Zealand. The livers from avian species were treated similarly to those mentioned above for the possum samples.
(§2) Microsomal preparation was carried out as previously described [76]. […] All procedures were performed at 0–4 °C. The liver samples were minced and homogenised in Buffer A (0.1 M Tris, 0.1 M potassium chloride, 1 mM EDTA, and 20 μM butylated hydroxytoluene, at pH = 7.4) using the Teflon-glass homogeniser (5–6 vertical passes). The samples were centrifuged at 10,000× g for 20 min. The supernatant was then transferred into another set of centrifuge tubes and spun at 100,000× g for 60 min. The pellet was resuspended in Buffer B (0.1 M potassium pyrophosphate, 1 mM EDTA, and 20 μM butylated hydroxytoluene, at pH = 7.4), homogenised, and recentrifuged at 100,000× g for 60 min. Finally, the pellet was homogenised in 1–2 mL of Buffer C (10 mM Tris-HCl, 1 mM EDTA, and 4% glycerol (v/v)), and stored at −80 °C until use. The protein concentration of the microsomes was determined using the bicinchoninic acid (BCA) method [77].
(§3) CYP3A catalytic activity was determined using the erythromycin N-demethylation activity assay, as described [78]. The reaction mixture (final volume of 1 mL and final protein concentration of 1 mg) contained 500 µL of microsomes in 0.1 M phosphate buffer (pH 7.4) and 400 µL of erythromycin buffer (0.45 mM), and 50 µL of the test compound was pre-warmed at 37 °C for 2 min. The reaction was initiated with 50 µL of 2.5 mM nicotinamide adenine dinucleotide phosphate (NADP^+) and incubated for 30 min at 37 °C. […] The tubes were vortexed and left for 5 min (at room temperature), and then 330 µL of saturated barium hydroxide was added. The tubes were further vortexed and left for 5 min (at room temperature). The tubes were then centrifuged at 1800× g for 10 min. To 830 µL of the supernatant, 330 µL of Nash reagent (30% (w/v) ammonium acetate, 0.4% (v/v) acetylacetone) was added and further incubated for 30 min at 60 °C. The blank tube contained 330 µL of Nash reagent and 830 µL of Milli-Q water. […] The CYP3A activities were determined in nmol/mg/min using standard curve data. Results presented are the mean ± SEM of 3 independent experiments performed in duplicate unless otherwise stated.

CYP3A [5] = experiment: CYP3A catalytic activity (erythromycin N-demethylation) in possum liver microsomes; conditions: for Percent control catalytic activity at estimated IC50 / Percent control catalytic activity at estimated 2-fold IC50: possum liver microsomes, initial screen n=1; for Percent control catalytic activity at estimated IC50: compounds without reported IC50 at 1 µM; for Percent control catalytic activity at estimated 2-fold IC50: compounds without reported IC50 at 5 µM; for % of control (catalytic activity at 2-fold IC50) / Catalytic activity at 2-fold IC50: possum, compound at estimated 2-fold IC50 (5 µM where none reported)
Method: as §1, §2, §3
UGT2B (heading: UGT2B4) [6] = experiment: p-nitrophenol glucuronidation activity in possum liver microsomes; assay type: biochemical, possum (Trichosurus vulpecula); conditions: possum (Trichosurus vulpecula)
UGT2B [7] = experiment: as above; assay type: biochemical, possum (Trichosurus vulpecula); conditions: for % of control (UGT2B4 catalytic activity at 2-fold IC50) / UGT2B4 catalytic activity at 2-fold IC50: compound at estimated 2-fold IC50
UGT2B (heading: UGT2B4) [8] = experiment: p-nitrophenol glucuronidation activity in mouse liver microsomes; conditions: BALB/c, mouse
UGT2B [9] = experiment: as above
UGT2B (heading: UGT2B4) [10] = experiment: in vitro; conditions: avian (mallards and a swan), pH 7.4
UGT2B (heading: UGT2B4) [11] = experiment: in vitro; conditions: human, pH 7.4
UGT2B (heading: UGT2B4) [12] = experiment: in vitro; conditions: BALB/c, mouse, pH 7.4
CYP3A [13] = experiment: CYP3A catalytic activity (erythromycin N-demethylation) in pooled human liver microsomes; conditions: for activity at 30 min: human, pH 7.4, probe erythromycin, % of control (catalytic activity at IC50), compound at estimated IC50 (1 µM where none reported); for % of control (catalytic activity at 2-fold IC50) / Catalytic activity at 2-fold IC50: compound at estimated 2-fold IC50 (5 µM where none reported)
Method: as §3

CYP3A [14] = conditions: avian; compound at estimated 2-fold IC50 (5 µM where none reported)
Method: as §1, §2, §3

[15] = pH 7.4, compound at estimated IC50, read-out: % of control (UGT2B4 catalytic activity at IC50)
[16] = liver microsomes, pH 7.4, probe p-nitrophenol (0.5 mM final, from 50 µL of 5 mM in 500 µL)
[17] = pooled human liver microsomes, compound at estimated 2-fold IC50
[18] = liver microsomes, pH 7.4, probe p-nitrophenol (0.5 mM final, from 50 µL of 5 mM in 500 µL), compound at estimated IC50, read-out: % of control (UGT2B4 catalytic activity at IC50)
[19] = mouse, compound at estimated 2-fold IC50

Compound	% of control (UGT2B4 catalytic activity at 2-fold IC50) (UGT2B [1])	UGT2B4 catalytic activity at 2-fold IC50 (UGT2B [1]) [µmol/mg/min]	activity at 30 min (UGT2B (heading: UGT2B4) [2]) [%]	% of control (UGT2B4 catalytic activity at 2-fold IC50) (UGT2B [3])	UGT2B4 catalytic activity at 2-fold IC50 (UGT2B [3])	Percent control catalytic activity at estimated IC50 (CYP3A [4]) [percent control]	Percent control catalytic activity at estimated 2-fold IC50 (CYP3A [4]) [percent control]	Percent control catalytic activity at estimated IC50 (CYP3A [5]) [percent control]	Percent control catalytic activity at estimated 2-fold IC50 (CYP3A [5]) [percent control]	activity at 30 min (UGT2B (heading: UGT2B4) [6]; [15]) [%]	% of control (UGT2B4 catalytic activity at 2-fold IC50) (UGT2B [7])	UGT2B4 catalytic activity at 2-fold IC50 (UGT2B [7]) [µmol/mg/min]	activity at 30 min (UGT2B (heading: UGT2B4) [8]; [16]) [%]	UGT2B4 catalytic activity at 2-fold IC50 (UGT2B [9])	activity at 30 min (UGT2B (heading: UGT2B4) [10]) [%]	activity at 30 min (UGT2B (heading: UGT2B4) [6]; [18]) [%]	% of control (UGT2B4 catalytic activity at 2-fold IC50) (UGT2B [9]; [19])	UGT2B4 catalytic activity at 2-fold IC50 (UGT2B [9]; [19]) [µmol/mg/min]	activity at 30 min (UGT2B (heading: UGT2B4) [8]; pH 7.4) [%]	further results
O=C(/C=C/C=C/c1ccc2c(c1)OCO2)N1CCCCC1 [Piperine]	86 % of control	0.55 ± 0.06	94	92	3.62	126	107	127	121	103	103 % of control	4.29 ± 0.17	113	2.70±0.07	84					% of control (UGT2B4 catalytic activity at 2-fold IC50) (UGT2B [9]): 99
CC(C)=CCC[C@](C)(O[C@@H]1O[C@H](CO)[C@@H](O)[C@H](O)[C@H]1O)[C@H]1CC[C@]2(C)[C@@H]1[C@H](O)C[C@@H]1[C@@]3(C)CC[C@H](O)C(C)(C)[C@@H]3[C@@H](O)C[C@]12C [Ginsenoside F1]	99 % of control	0.66 ± 0.14				82		120			109 % of control	4.14 ± 0.18			110	100	157 % of control	4.36 ± 0.01		activity (UGT2B (heading: UGT2B4) [11]): 101%; % of control (UGT2B4 catalytic activity at 2-fold IC50) (UGT2B [3]; [17]): 100 % of control; UGT2B4 catalytic activity at 2-fold IC50 (UGT2B [3]; [17]): 4.01 µmol/mg/min; activity (UGT2B (heading: UGT2B4) [12]): 132%
C[C@@H]1CC[C@H]2C(C)(C)[C@H]3C[C@@]12CC[C@@]3(C)O [Cedrol]	91 % of control	0.56 ± 0.13	98			90	62	107	99		92 % of control	3.78 ± 0.13			96	93	84 % of control	2.57 ± 0.16	84	% of control (UGT2B4 catalytic activity at 2-fold IC50) (UGT2B [3]; [17]): 98 % of control; UGT2B4 catalytic activity at 2-fold IC50 (UGT2B [3]; [17]): 3.85 µmol/mg/min
CC(C)c1nc(CN(C)C(=O)N[C@@H](CCN2CCOCC2)C(=O)N[C@H](CC[C@H](Cc2ccccc2)NC(=O)OCc2cncs2)Cc2ccccc2)cs1 [Cobicistat]			110										104		33					
CCC(C)n1ncn(-c2ccc(N3CCN(c4ccc(OCC5COC(Cn6cncn6)(c6ccc(Cl)cc6Cl)O5)cc4)CC3)cc2)c1=O (centres unmarked) [Itraconazole]	94 % of control	0.35 ± 0.05	95	88	2.80 µmol/mg/min	91	91	141	120		102 % of control	3.06 ± 0.25		1.99 ± 0.24 µmol/mg/min	118	102			125	% of control (UGT2B4 catalytic activity at 2-fold IC50) (UGT2B [9]): 106
OC(Cn1cncn1)(Cn1cncn1)c1ccc(F)cc1F [Fluconazole]			112			70		107		93					224				81	activity at 30 min (CYP3A [13]): 91%; p-nitrophenol glucuronidation (UGT2B) activity, % of the control (UGT2B [7]; at estimated IC50 and 2-fold IC50 values): > 65 % of the control
Nc1ccc(S(=O)(=O)Nc2ccnn2-c2ccccc2)cc1 [Sulfaphenazole]	74 % of control	0.57 ± 0.14		98	3.38 µmol/mg/min	96	100	93	84		99 % of control	3.59 ± 0.23	103	2.27 ± 0.02 µmol/mg/min	74	105	94 % of control			activity (UGT2B (heading: UGT2B4) [11]): 102%; % of control (catalytic activity at 2-fold IC50) (CYP3A [4]): 109 % of control; Catalytic activity at 2-fold IC50 (CYP3A [4]): 0.68 ± 0.06 nmol/mg/min; % of control (catalytic activity at 2-fold IC50) (CYP3A [5]): 111 % of control; Catalytic activity at 2-fold IC50 (CYP3A [5]): 0.37 ± 0.04 nmol/mg/min; % of control (catalytic activity at 2-fold IC50) (CYP3A [13]): 105 % of control; Catalytic activity at 2-fold IC50 (CYP3A [13]): 0.47 nmol/mg/min; % of control (catalytic activity at 2-fold IC50) (CYP3A [14]): 110 % of control; Catalytic activity at 2-fold IC50 (CYP3A [14]): 0.33 ± 0.06 nmol/mg/min
CC[C@H]1OC(=O)[C@H](C)[C@@H](O[C@H]2C[C@@](C)(OC)[C@@H](O)[C@H](C)O2)[C@H](C)[C@@H](O[C@@H]2O[C@H](C)C[C@H](N(C)C)[C@H]2O)[C@](C)(OC)C[C@@H](C)C(=O)[C@H](C)[C@@H](O)[C@]1(C)O [Clarithromycin]	48 % of control	0.20 ± 0.08				89	81	90	117	108	96 % of control	3.51 ± 0.28			110		90 % of control	1.77 ± 0.12	120	% of control (catalytic activity at 2-fold IC50) (CYP3A [4]): 95 % of control; Catalytic activity at 2-fold IC50 (CYP3A [4]): 0.60 ± 0.09 nmol/mg/min; % of control (catalytic activity at 2-fold IC50) (CYP3A [5]): 103 % of control; Catalytic activity at 2-fold IC50 (CYP3A [5]): 0.43 ± 0.01 nmol/mg/min; % of control (catalytic activity at 2-fold IC50) (CYP3A [13]): 91 % of control; Catalytic activity at 2-fold IC50 (CYP3A [13]): 0.59 nmol/mg/min; activity at 30 min (CYP3A [13]): 95%; % of control (catalytic activity at 2-fold IC50) (CYP3A [14]): 94 % of control; Catalytic activity at 2-fold IC50 (CYP3A [14]): 0.41 ± 0.07 nmol/mg/min
